Experimental findings from patent US10065951B2, “Small molecule transcription modulators of bromodomains” (Icahn School of Medicine at Mount Sinai, priority 2014, dated 2018) are described below.

For assay [1], the system named is oligodendrocyte progenitor cultures. In words: Microarray and qRT-PCR gene expression in oligodendrocyte progenitor cultures. The class given is cell-based, rat. How it is done: Raw values were normalized to Gapdh levels and expressed relative to the levels detected in cells kept for 1 day in ODM. A housekeeping gene (act) was used as a control.
Total RNA were isolated from the cells using Trizol® Reagent following manufacturer's instruction and cleaned up using RNeasy Mini kit (Qiagen, Hilden, Germany). 0.5-1 μg of total RNA was used in 20 μl of reverse transcription (RT) reaction, using SuperScript RT-PCR kit (Invitrogen, Carlsbad, Calif.). Quantitative RT-PCR was performed using Applied Biosystems SYBR green PCR master mix in 384-well plate in ABI 7900HT Sequence Detection PCR System. The PCR was performed in a 20 μl reaction mixture containing 0.2 μl cDNA as template and 100 nM specific oligonucleotide primer pairs using program denaturation at 95° C. for 15 s; annealing and extension at 60° C. for 1 min for 40 cycles. Melting curve of each sample was measured to ensure the specificity of the products. Data were normalized to the internal control GAPDH and analyzed using Pfaffl ΔΔCt method.
To determine how 4c exerts the pro-differentiative effect at 10 nM on the lineage progression of oligodendrocyte progenitors when the global histone acetylation is unchanged, a possibility that the compound would primarily affect CBP binding to target genes was investigated. To test this hypothesis, a microarray analysis was performed of cultures either untreated or treated with 10 nM 4c for 1 or 4 days.
For orientation: Real-time PCR tracks product formation cycle by cycle.

Assay [2] relates to CBP occupancy at promoters (Lmnb1 transcription start site). In words: Chromatin immunoprecipitation (ChIP) of CBP and H3K18ac at gene promoters. It is filed as cell-based. Conditions: 10 nM, one day. How it is done: FIG. 9 illustrates the ChIP analysis of samples isolated from cells cultured as previously described and then precipitated using antibodies specific for CBP, and for H3K18ac. A mock ChIP (No Antibody) was used as negative control. The amount of chromatin recovered at the Lmnb1 transcription start site was measured by qPCR and expressed as percentage of input for each sample. Error bars are s.e.m. of three independent experiments (*p<0.05, **p<0.01 two-tail t test).
Oligodendrocyte progenitors (4×10^6) were crosslinked in 1% formaldehyde, lysed in nuclear lysis buffer (50 mM Tris-HCL (pH 8.0), 10 mM EDTA, 1% SDS, Protease Inhibitors (Roche) and PMSF) and sonicated using a Bioruptor (Diagenode) sonicator to produce chromatin with an average length of 500 base pairs. Chromatin was aliquoted and immunopreciptiated using protein A magnetic beads (Dynabeads-Invitrogen 100.01D) coated with 2 μg of antibodies to CBP (santa cruz sc-369), H3-K9ac (abcam ab4441), H3-K9ac and K14 (millipore 06-599), H3-K18ac (abcam ab1191). A mock immunopreciptitation was set-up as a control (No antibody). Immunoprecipitations were carried out overnight. […]
Quantitative PCR was performed using primers to detect the transcriptional start site of the Lmnb1 promoter; forward 5′-[…] […]

A further assay deals with MOG-induced EAE. In words: MOG-induced EAE in mice, 7-day treatment started after onset of clinical symptoms. It is filed as in vivo, mouse. Conditions: treatment from day 18 for 7 days, mice with score 2.5-3.0; after 3-4 days of treatment. Here is the method: FIG. 14 illustrates seven-day 4c treatment accelerates recovery from MOG-induced EAE even if started AFTER the onset of clinical symptoms.
This study was conducted to determine whether the effectiveness of 4c can be observed in animals even if started once the disease has progressed to peak clinical symptoms. For this reason, MOG-dependent EAE in mice was induced and the animals scored daily. On day 18 post-immunization mice with a score of 2.5-3.0 (paralysis of one leg and weakness of the other to paralysis of both hindlimbs) were selected and divided into two groups receiving either 4c or vehicle treatment for 7 days.

The test system of assay [3] is cuprizone-induced demyelination. The experiment in a line: Cuprizone model of demyelination in old mice. It is filed as in vivo, mouse. Conditions: injection starting during the 3rd week. Here is the method: Effect of treatment with 2.4 μg/Kg 4c (olinone; red bars) and DMSO (black bars) treatment on the expression of progenitor (i.e. NG2), astrocytic (i.e. GFAP) and oligodendrocyte (i.e. MBP, MOG, PLP) genes.
FIG. 16 illustrates enhanced remyelination in 4c-treated mice. […] Cuprizone damages myelin and this can be best seen as a decreased in the staining intensity. The effect on repair is shown by the darker intensity of the myelinated fibers.
A similar experiment was repeated in the cuprizone model of demyelination (FIG. 15). This model, characterized by precocious loss of myelin gene transcripts and oligodendrocyte apoptosis, followed by a repair phase characterized by expansion of the progenitor pool followed by differentiation has been previously described (Matsushima, G. K., and Morell, P. (2001). Brain Pathol 11:107-116). It was shown that in young mice the repair phase starts at week 3 and is characterized by the HDAC-dependent phase of differentiation of endogenous progenitors (Shen, S., Sandoval, J., Swiss, V. A., Li, J., Dupree, J., Franklin, R. J., and Casaccia-Bonnefil, P. (2008) Nat Neurosci 11:1024-1034) old mice repair was impaired, due to unopposed HAT activity, resulting in high levels of transcriptional inhibitors of oligodendrocyte differentiation and low myelin gene transcripts.

Setting [4] is: 10 nM, four days of treatment, microarray.
Setting [5] is: 10 nM, one day of treatment, microarray.

As to `CC(=O)NCCCCn1c2c(c3ccccc31)C(=O)NCC2` [4c, 2,3,4,5-tetrahydro-5-(4′-acetamidobutyl)-1H-pyrido-[4,3-b]indol-1-one], in assay [1] (setting [4]), the “number of genes down-regulated” value was found to be 536 genes and the “number of genes up-regulated” value was 57 genes. In addition, in assay [1] (setting [5]), the “number of genes decreased more than 1.2 fold” value is reported as 832 genes and the “number of genes increased more than 1.2 fold” value is 169 genes. Besides, in assay [1] (qRT-PCR, 4c-treated cells), the “expression of Ctnnb1 and Lmnb1” value is reported as “reduced expression”. In assay [2], the “acetylation of histone H3 at lysine 18 (H3K18ac) at promoters” value is recorded as “but not the acetylation of histone H3 at lysine 18 (H3K18ac) was decreased” and the “association of CBP with promoters” value is on record as “decreased”. Besides, the “recovery when treatment started at peak clinical symptoms” value in the assay with MOG-induced EAE is given as “showed signs of recovery”. The “formation of new myelin (eryochrome cyanine staining)” value in assay [3] is reported as “favors the formation of new myelin”. Moreover, the myelin gene transcripts result in assay [3] (2.4 μg/Kg) is listed as “increased myelin gene transcripts”.
